The values that follow come from ChEMBL document CHEMBL1201862, “PubChem BioAssay data set” (2004).

What all share (assay): NCI-60 cell line screen, 48 h
Experiment [1] relates to A498.
In experiment [2] the test system is TK-10.
The subject of experiment [3] is NCI/ADR-RES.
Experiment [4] has as its system EKVX.
The subject of experiment [5] is MDA-MB-435.
The subject of experiment [6] is HCC 2998.
Experiment [7] has as its system T47D.
Experiment [8] has as its system CCRF-CEM.
Experiment [9] deals with 786-0.
Experiment [10] deals with HL-60.
Experiment [11] has as its system UO-31.
Experiment [12] relates to HCT-15.
For experiment [13], the system named is K562.
The subject of experiment [14] is SNB-75.
The test system of experiment [15] is MDA-N.
The test system of experiment [16] is HT-29.
The test system of experiment [17] is MCF7.
The subject of experiment [18] is HOP-62.
For experiment [19], the system named is NCI-H522.
Experiment [20] has as its system RXF 393.

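Results reflect a 48-hour exposure of cells in 96-well plates to compound at five concentrations. GI50 = concentration required for 50% inhibition of growth.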 Active and inactive are the calls of the source. No stated cut-off is given here; in the data, active = GI50 up to about 1.1 µM and inactive = higher. Where a SMILES comes first, the peptide text is derived from it.

Regarding `CC1=C(C(=O)NNC(=O)c2ccccc2O)CC(C(=O)NNC(=O)c2ccccc2O)=C(C)N1`, the GI50 in [1] is 1.79 µM (inactive); in experiment [2], > 47.3 µM (inactive); in experiment [3] it was 0.448 µM (active); in [4] it was 7.78 µM (inactive); in experiment [5], 0.425 µM (active); in [6], 13.7 µM (inactive). Also, the GI50 in experiment [7] is 0.498 µM (active); in experiment [8], 4.7 µM (inactive); in experiment [9] it was 3.13 µM (inactive); in [10], 0.512 µM (active); in experiment [11], 0.277 µM (active); in [12], 0.649 µM. Besides, the GI50 in experiment [13] was 0.338 µM (active); in [14] it was 0.292 µM (active); in experiment [15], 0.336 µM (active); in [16], 7.93 µM (inactive); in experiment [17] it was 0.612 µM (active); in experiment [18], 5.46 µM (inactive). Moreover, in experiment [19], the GI50 is 2.72 µM (inactive).

For `O=C1NC(=S)NC(=O)C1C(c1ccc(O)cc1)C1C(=O)NC(=S)NC1=O.c1ccncc1`, the GI50 in experiment [1], in experiment [2], in experiment [3], in experiment [5], in experiment [7] and in experiment [8] was > 100 µM (inactive) in each case. Moreover, the GI50 was > 100 µM (inactive) in experiment [9]; > 100 µM (inactive) in [10]; > 100 µM (inactive) in experiment [11]; above 100 µM in experiment [12]; > 100 µM (inactive) in experiment [13]; > 100 µM (inactive) in [15]. The GI50 in experiment [16], in experiment [17], in experiment [20], in experiment [18] and in experiment [19] was > 100 µM (inactive) in each case.

On to `CC1(C)COC(c2cccc(C(O)c3ccc(Cl)cc3)c2)=N1` (centres undefined), for which the GI50 in experiment [2] was 32.6 µM (inactive); in experiment [3], 33.3 µM (inactive); in experiment [4] it was 35.4 µM (inactive); in experiment [5], 24.9 µM (inactive); in [6], 23.8 µM (inactive); in experiment [7], 36.3 µM (inactive). In addition, the GI50 was 19 µM (inactive) in experiment [8]; 23.9 µM (inactive) in experiment [9]; 41 µM (inactive) in experiment [10]; 17.1 µM (inactive) in [11]; 23.4 µM (inactive) in experiment [13]; 2.94 µM (inactive) in [14]. In addition, the GI50 is 24.8 µM (inactive) in [15]; 17.7 µM (inactive) in experiment [16]; 19.6 µM (inactive) in [17]; 15 µM (inactive) in [20]; 30.1 µM (inactive) in experiment [18]; 31.8 µM (inactive) in experiment [19].

Take `CCCCNC(=S)N/N=C/c1cccc(C)n1`: the GI50 in experiment [1] was 36.1 µM (inactive); in experiment [2] it was 29.7 µM (inactive); in experiment [3], 29 µM (inactive); in [4] it was 24.8 µM (inactive); in experiment [5], 42.2 µM (inactive); in [7], 26 µM (inactive). The GI50 is 6.9 µM (inactive) in experiment [8]; 35.2 µM (inactive) in experiment [9]; 23.2 µM (inactive) in [10]; 29 µM (inactive) in experiment [11]; 47.6 µM in experiment [12]; 13.2 µM (inactive) in experiment [13]. The GI50 was 67.6 µM (inactive) in [14]; 42.8 µM (inactive) in experiment [15]; > 10 µM (inactive) in experiment [16]; 37.8 µM (inactive) in [17]; 23.9 µM (inactive) in experiment [18]; 18.6 µM (inactive) in experiment [19].

For the compound `CC(=O)NC(CS)C(=O)NC(CO)C(=O)NC(CO)C(=O)NC(Cc1c[nH]c2ccccc12)C(=O)N1CCCC1C(=O)NC(CO)C(=O)NC(Cc1c[nH]c2ccccc12)C(=O)NC(Cc1c[nH]cn1)C(=O)NC(CO)C(=O)NC(Cc1c[nH]c2ccccc12)C(=O)NCC(=O)NCC(=O)NC(CC(=O)O)C(=O)NC(CCC(N)=O)C(=O)NC(CCCCN)C(=O)NC(Cc1ccccc1)C(=O)NC(CCCNC(=N)N)C(=O)NC(CCCCN)C(N)=O` (centres undefined) (Ac-CSSWPSWHSWGGDQKFRK-NH2; configuration not given here), the GI50 in experiment [1], in experiment [2], in [3], in experiment [4], in experiment [5] and in [7] was > 25 µM (inactive) each time. Also, the GI50 in [8] was > 25 µM (inactive); in experiment [9] it was > 25 µM (inactive); in experiment [10] it was > 25 µM (inactive); in [11] it was > 25 µM (inactive); in [12], above 25 µM; in experiment [13], > 25 µM (inactive). The GI50 in [14], in experiment [15], in experiment [16], in experiment [17], in experiment [20] and in experiment [18] was > 25 µM (inactive) each time. Moreover, the GI50 in experiment [19] is > 25 µM (inactive).

In the case of `COc1ccc2c(c1)CC[C@@H]1C2CC[C@]2(C)C(=O)N(C)C(=O)CC12` (some centres undefined), the GI50 in experiment [1], in experiment [2], in experiment [4], in experiment [5], in experiment [6] and in experiment [7] was > 100 µM (inactive) in each case. The GI50 is > 100 µM (inactive) in experiment [8]; 50.1 µM (inactive) in experiment [9]; 15.7 µM (inactive) in experiment [10]; > 100 µM (inactive) in [11]; > 100 µM (inactive) in experiment [13]; 52.5 µM (inactive) in [14]. In addition, the GI50 was > 100 µM (inactive) in experiment [15]; > 100 µM (inactive) in experiment [16]; > 100 µM (inactive) in experiment [17]; 38.1 µM (inactive) in experiment [20]; 38.9 µM (inactive) in experiment [18]; > 100 µM (inactive) in [19].

`CCOC(=O)C1C(c2ccc3c(c2)OCO3)c2c(n[nH]c2O)CC1(C)O` (centres undefined): the GI50 in experiment [1], in [2], in [3], in experiment [4], in experiment [5] and in experiment [6] was > 100 µM (inactive) each time. Besides, the GI50 in experiment [7] was > 100 µM (inactive); in [8] it was > 100 µM (inactive); in [9] it was > 100 µM (inactive); in [10] it was > 100 µM (inactive); in [11] it was > 100 µM (inactive); in experiment [12] it was above 100 µM. For the same compound, the GI50 in [14], in experiment [15], in experiment [16], in [17], in experiment [18] and in [19] was > 100 µM (inactive) each time.

For the compound `Cc1c(Br)c(Br)c(C)[s+]1[O-]`, the GI50 was 27.4 µM (inactive) in experiment [1]; 21.2 µM (inactive) in [2]; 29 µM (inactive) in experiment [3]; 15.1 µM (inactive) in experiment [4]; 9.16 µM (inactive) in experiment [5]; 18.4 µM (inactive) in experiment [6]. Besides, the GI50 in experiment [7] was 34.9 µM (inactive); in [8], 1.92 µM (inactive); in [9], 16.9 µM (inactive); in experiment [10], 3.2 µM (inactive); in [11] it was 13.6 µM (inactive); in experiment [12] it was 12.4 µM. The GI50 in experiment [13] was 25.6 µM (inactive); in experiment [15] it was 12.6 µM (inactive); in experiment [16] it was 15.4 µM (inactive); in [17], 25 µM (inactive); in experiment [18], 15.6 µM (inactive); in [19], 8.02 µM (inactive).

With `Cc1ccc(O)c(-c2cc(-c3ccccc3)nc(/N=C\c3ccccc3)n2)c1`, the GI50 in experiment [2] was 97.1 µM (inactive); in [3] it was 21.5 µM (inactive); in experiment [4], 47.8 µM (inactive); in experiment [5] it was > 100 µM (inactive); in experiment [7], 7.69 µM (inactive); in experiment [8] it was 18.6 µM (inactive). Also, the GI50 is 32.5 µM (inactive) in [9]; 35.2 µM (inactive) in [10]; 2.94 µM (inactive) in [11]; 11.6 µM in [12]; 45.6 µM (inactive) in experiment [13]; 15.3 µM (inactive) in [14]. Also, the GI50 in experiment [15] was 94.2 µM (inactive); in experiment [16], > 100 µM (inactive); in experiment [17] it was 2.6 µM (inactive); in [18] it was 18.1 µM (inactive); in experiment [19], > 100 µM (inactive).

Turning to `COc1ccc(/C(=N/N=c2\[nH]c3ccccc3n2Cc2ccccc2)C(=O)O)cc1`, the GI50 in experiment [1] was 13.1 µM (inactive); in experiment [2], 35.3 µM (inactive); in experiment [3], 5.19 µM (inactive); in experiment [4] it was 31.3 µM (inactive); in experiment [5] it was 21.1 µM (inactive); in [6], 10 µM (inactive). Moreover, the GI50 is 14.7 µM (inactive) in [7]; 3.97 µM (inactive) in experiment [8]; 5.12 µM (inactive) in [9]; 3.19 µM (inactive) in experiment [10]; 25.8 µM (inactive) in experiment [11]; 12.6 µM in experiment [12]. In addition, the GI50 was 22.7 µM (inactive) in experiment [13]; 18.3 µM (inactive) in experiment [14]; 32 µM (inactive) in experiment [15]; 22 µM (inactive) in [16]; 13.2 µM (inactive) in experiment [17]; 10.5 µM (inactive) in [18]. The GI50 in [19] is 8.65 µM (inactive).

Regarding `C[C@]12CC[C@H](O)CC1=CC[C@@H]1C2CC[C@]2(C)c3n[nH]nc3CC12` (some centres undefined), the GI50 in [1] was > 100 µM (inactive); in experiment [2], > 100 µM (inactive); in experiment [4], 52.7 µM (inactive); in experiment [5] it was 36.2 µM (inactive); in experiment [6], > 100 µM (inactive); in experiment [7], > 100 µM (inactive). The GI50 in [8] was > 100 µM (inactive); in experiment [9] it was > 100 µM (inactive); in experiment [10], 44.4 µM (inactive); in [11], > 100 µM (inactive); in experiment [13], 39.8 µM (inactive); in experiment [14] it was 82 µM (inactive). In addition, the GI50 was 36.3 µM (inactive) in experiment [15]; > 100 µM (inactive) in experiment [16]; > 100 µM (inactive) in [17]; > 100 µM (inactive) in experiment [20]; > 100 µM (inactive) in experiment [18]; > 100 µM (inactive) in experiment [19].
